Read-outs that look alike come from different tables or passages of the source.
How the values were obtained:
parental HEK cells = test: HEK parental Agonist Counterscreen Assay (non-transfected cells); format: cell-based; details: for Averaged Max % Response (±St. Dev.): activity relative to known control
Excerpt: The high control for the agonist counterscreen was Forskolin not acetylcholine.

GPR139 = target: T1, GPR139 (Homo sapiens, UniProt Q6DWJ6); test: GPR139 Agonist titration / agonist counterscreen assay (calcium detection, HEK-GPR139 cells); format: cell-based; design: expressed in transfected cells; host or cells: HEK Aequorin cells, Maxcyte transient transfection; details: GPR139 Agonist Activity; for Averaged Max % Response (±St. Dev.): activity relative to known control; for EC50: read-out: EC50
T1 sequence (Q6DWJ6 1-353): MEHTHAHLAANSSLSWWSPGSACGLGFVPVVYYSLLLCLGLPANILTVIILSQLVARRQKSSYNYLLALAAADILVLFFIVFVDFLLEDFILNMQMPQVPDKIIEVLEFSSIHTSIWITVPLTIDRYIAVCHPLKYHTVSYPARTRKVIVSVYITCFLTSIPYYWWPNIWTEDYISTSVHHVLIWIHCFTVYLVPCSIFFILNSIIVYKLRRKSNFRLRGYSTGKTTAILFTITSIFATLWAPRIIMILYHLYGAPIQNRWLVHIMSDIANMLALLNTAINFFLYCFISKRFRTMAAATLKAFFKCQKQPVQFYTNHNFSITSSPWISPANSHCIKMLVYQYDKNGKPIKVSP
Procedure: GPR activity was assessed using a calcium detection assay. […] Negative control samples were treated with DMSO. […] Intracellular calcium was measured using Calcium 5.

[1] = Homo sapiens, HEK293, HEK Agonist Activity, parental non-transfected HEK cells
[2] = values printed in E-notation without unit
[3] = Homo sapiens, HEK293, HEK Agonist Activity section of Table 4 (parental HEK counterscreen)

Row | Lipophilic Efficiency (logD) (parental HEK cells; HEK Agonist Activity) | Lipophilic Efficiency (logP) (parental HEK cells; HEK Agonist Activity) | Averaged Max % Response (±St. Dev.) (GPR139) [%] | Lipophilic Efficiency (logD) (GPR139; based on logD) | Lipophilic Efficiency (logP) (GPR139; based on logP) | Hill Slope (GPR139; fitted dose-response curve) | Efficiency Ligand (GPR139; ligand efficiency) | EC50 (GPR139; [2]) [nM] | Lipophilic Efficiency (logD) (parental HEK cells; HEK Agonist Activity section) | Lipophilic Efficiency (logP) (parental HEK cells; HEK Agonist Activity section) | Efficiency Ligand (GPR139) | Hill Slope (GPR139) | Lipophilic Efficiency (logD) (GPR139) | Lipophilic Efficiency (logP) (GPR139) | EC50 (GPR139; HEK-GPR139 cells) [nM] | Compound | Averaged Max % Response (±St. Dev.) (parental HEK cells; HEK Agonist Activity) [%] | Averaged Max % Response (±St. Dev.) (parental HEK cells; HEK Agonist Activity section) [%] | EC50 (parental HEK cells; [3]) [µM] | also measured
1 | 3.34 | 3.34 | 119.00 ± 0.36 | 6.50 | 6.50 | 0.58 | 0.40 | 10.1 |  |  |  |  |  |  |  | Cc1cc(C(=O)NNC(=O)CNC(=O)Cc2cccc3ccccc23)c(C)o1 [SR-01000068718] | 20.24 ± 11.96 |  |  | EC50 (parental HEK cells; [1]): > 14.9 µM
2 | 1.61 | 1.61 | 98.34 ± 6.18 | 4.61 | 4.61 | 0.92 | 0.57 | 16.2 |  |  |  |  |  |  |  | Cn1cnnc1SCc1ccc(F)c2ccccc12 [SR-01000524029] | 9.45 ± 2.06 |  |  | EC50 (parental HEK cells; HEK Agonist Activity, parental non-transfected HEK cells): > 16 µM
3 |  |  | 80.96 ± 18.51 |  |  |  |  |  | 1.05 | 1.05 | 0.34 | 0.88 | 1.94 | 1.94 | 2300 | Cc1c(Cl)c(C(F)(F)F)nn1CC(=O)NCc1ccc(Cl)cc1 [SR-01000429212] |  | −31.95 ± 8.26 | > 18 | 
4 |  |  | 98.34 ± 1.36 |  |  |  |  |  | 1.89 | 1.89 | 0.34 | 0.96 | 3.40 | 3.40 | 462 | COc1cc(C(=O)NNC(=O)CSc2ccc(C)cc2)cc(OC)c1C [SR-01000070170] |  | 6.82 ± 9.60 | > 15 | 
5 |  |  | 80.15 ± 4.78 | 4.08 | 4.08 | 0.64 | 0.39 | 202 | 2.23 | 2.23 |  |  |  |  |  | COc1cccc(CNC(=O)Nc2ccc(-c3cn[nH]c3)cc2)c1 [SR-00000005253] |  | −10.69 ± 5.73 | > 14.1 | 
6 |  |  | 79.66 ± 15.90 |  |  |  |  |  | 1.51 | 1.51 | 0.30 | 0.73 | 2.72 | 2.72 |  | Cc1ccc(CN2CCN(CC(=O)NCCc3ccc(Cl)cc3)C2=O)c(Cl)c1 [SR-01000125626] |  | −27.02 ± 6.51 | > 14.1 | 

The remaining lines, values behind:

Row | Compound | Lipophilic Efficiency (logD) (parental HEK cells; HEK Agonist Activity) | Lipophilic Efficiency (logP) (parental HEK cells; HEK Agonist Activity) | Averaged Max % Response (±St. Dev.) (GPR139) [%] | Lipophilic Efficiency (logD) (GPR139; based on logD) | Lipophilic Efficiency (logP) (GPR139; based on logP) | Hill Slope (GPR139; fitted dose-response curve) | Efficiency Ligand (GPR139; ligand efficiency) | EC50 (GPR139; [2]) [nM] | Lipophilic Efficiency (logD) (parental HEK cells; HEK Agonist Activity section) | Lipophilic Efficiency (logP) (parental HEK cells; HEK Agonist Activity section) | Efficiency Ligand (GPR139) | Hill Slope (GPR139) | Lipophilic Efficiency (logD) (GPR139) | Lipophilic Efficiency (logP) (GPR139) | EC50 (GPR139; HEK-GPR139 cells) [nM] | Averaged Max % Response (±St. Dev.) (parental HEK cells; HEK Agonist Activity) [%] | Averaged Max % Response (±St. Dev.) (parental HEK cells; HEK Agonist Activity section) [%] | EC50 (parental HEK cells; [3]) [µM] | also measured
7 | Cc1ccc(C(=O)NNC(=O)CSc2nnc(Cn3cnc4ccccc43)o2)cc1 [SR-01000337370] |  |  | 96.26 ± 15.22 | 5.62 | 5.61 | 0.87 | 0.34 | 47.5 | 3.15 | 3.14 |  |  |  |  |  |  | 23.00 ± 5.22 |  | EC50 (parental HEK cells; HEK Agonist Activity section of Table 4 (parental HEK counterscreen)): > 14.1 µM
8 | O=C(Cn1cnc2ccccc21)NCCCn1ccc2ccccc21 [SR-01000926263] |  |  | 84.49 ± 4.10 | 4.34 | 4.34 | 1.10 | 0.39 | 127 | 2.29 | 2.29 |  |  |  |  |  |  | 12.91 ± 4.81 | > 14.1 | 
9 | CC(NC(=O)COC(=O)c1ccccc1C(F)(F)F)c1ccccc1 (stereo not drawn) [SR-01000037440] | 0.95 | 0.95 | 90.68 ± 18.21 | 3.59 | 3.59 | 0.54 | 0.42 | 32.9 |  |  |  |  |  |  |  | 16.47 ± 8.15 |  |  | EC50 (parental HEK cells; [1]): > 14.4 µM
10 | CC(Oc1ccccc1)C(=O)NCCn1ccc2ccccc21 (stereo not drawn) [SR-01000124163] |  |  | 90.02 ± 28.06 |  |  |  |  |  | 1.45 | 1.45 | 0.36 | 1.37 | 2.59 | 2.59 | 1000 |  | −3.45 ± 3.02 | > 14.1 | 
11 | CCCCCc1cc(C2=CCC=C2)ccc1CC(=O)C1CCc2ccccc2C1 (stereo not drawn) [SR-00000004451] |  |  | 92.93 ± 0.53 | 6.38 | 4.33 | 0.70 | 0.33 |  | 4.36 | 2.31 |  |  |  |  |  |  | 3.04 ± 3.40 | > 14.1 | 
12 | Cc1ccc(C)c(C(=O)CCC(=O)NNC(=O)CSc2nc3ccccc3o2)c1 [SR-01000073202] | 1.04 | 1.04 | 119.67 ± 15.04 | 4.38 | 4.38 |  | 0.39 | > 6.6 |  |  |  |  |  |  |  | 12.21 ± 5.38 |  |  | EC50 (parental HEK cells; [1]): > 14.5 µM
13 | COc1cc(C(=O)NNC(=O)COc2ccc3ccccc3c2)cc(OC)c1OC [SR-01000056004] |  |  | 81.95 ± 3.88 |  |  |  |  |  | 2.56 | 2.55 | 0.30 | 0.89 | 4.08 | 4.08 | 450 |  | −16.39 ± 11.45 | > 15.1 | 
14 | COc1cc(NC(=O)NCCc2ccc3c(c2)CCCN3C)cc(OC)c1 [SR-01000923249] |  |  | 93.59 ± 4.95 | 3.81 | 3.81 | 0.82 | 0.37 | 62.9 | 1.46 | 1.46 |  |  |  |  |  |  | 25.04 ± 3.96 | > 14.1 | 
15 | COc1cccc(C(=O)NNC(=O)C(C)Oc2ccc(Cl)cc2Cl)c1 (stereo not drawn) [SR-01000356497] | 1.52 | 1.48 | 126.50 ± 10.38 | 4.97 | 4.94 | 0.32 | 0.47 | 4.9 |  |  |  |  |  |  |  | 2.54 ± 3.30 |  |  | EC50 (parental HEK cells; [1]): > 14.1 µM
16 | CN(CCC(=O)NCC1Cc2cccc(-c3ccccn3)c2O1)C1CCS(=O)(=O)C1 (stereo not drawn) [SR-01000193031] |  |  | 95.01 ± 4.20 |  |  |  |  |  | 4.36 | 4.19 | 0.30 | 0.62 | 5.90 | 5.73 | 406 |  | 25.60 ± 3.67 | > 14.1 | 
17 | CC(Oc1ccc(O)cc1Cl)C(=O)NNC(=O)c1cccc(F)c1 (stereo not drawn) [SR-01000520454] | 1.31 | 1.19 | 113.77 ± 7.21 | 5.60 | 5.48 |  | 0.53 | > 0.703 |  |  |  |  |  |  |  | 15.83 ± 2.96 |  |  | EC50 (parental HEK cells; [1]): > 13.8 µM
18 | Cc1ccccc1SCC(=O)NNC(=O)C1CCCCC1 [SR-01000070173] |  |  | 99.23 ± 7.18 |  |  |  |  |  | 1.83 | 1.83 | 0.42 | 0.62 | 3.30 | 3.30 | 507 |  | 7.45 ± 6.67 | > 14.7 | 
19 | O=C(O)c1ccccc1C(=O)c1cccc2ccccc12 [SR-01000391835] |  |  | 104.57 ± 1.81 | 5.91 | 2.52 | 0.80 | 0.44 | 254 | 4.05 | 0.66 |  |  |  |  |  |  | 10.10 ± 5.45 | > 18.3 | 

Source: US20250099420A1, “SMALL MOLECULE MODULATORS OF GPR139 COMPLEX” (University of Florida Research Foundation, Incorporated, priority 2022, published 2025)
